Experimental data from patent US9738634B2, “Heterocyclic amide compound and herbicide” (SYNGENTA PARTICIPATIONS AG, priority 2013, dated 2017).

What was measured:
Assay type in all cases: in vivo
Details in all cases: treatment dosage 320 g/ha
barnyard grass [1] = assay: Test Example 1: weedkilling efficacy, preemergent weed treatment in the submerged state; A: barnyard grass
Summary of the method: (§1)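 Alluvial soil in Wagner pots flooded to 4 cm; barnyard grass, bulrush and oval-leafed pondweed seeds sown, then 2.5-leaf rice seedlings transplanted. Same day, emulsified compound diluted in water to set g/ha dosages and applied to water surface; greenhouse 25–30 °C, effect scored by criteria after 3 weeks.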

bulrush [2] = assay: Test Example 1: weedkilling efficacy, preemergent weed treatment in the submerged state; B: bulrush
Summary of the method: as §1

oval-leafed pondweed [3] = assay: Test Example 1: weedkilling efficacy, preemergent weed treatment in the submerged state; C: oval-leafed pondweed
Summary of the method: as §1

transplanted rice = assay: Test Example 1: preemergent weed treatment in the submerged state, effect on crop; a: transplanted rice
Summary of the method: as §1

barnyard grass [4] = assay: Test Example 2: weedkilling efficacy, growth period weed treatment in the submerged state; A: barnyard grass
Summary of the method: (§2)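 First, alluvial soil in pots is flooded to 4 cm and mixed seed is sown. Next, plants grow in a greenhouse at 25 to 30° C until the 1-2 leaf stage. Then diluted emulsion is applied onto the water surface at the given g/ha rate, and injury is assessed after 3 weeks.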

bulrush [5] = assay: Test Example 2: weedkilling efficacy, growth period weed treatment in the submerged state; B: bulrush
Summary of the method: as §2

oval-leafed pondweed [6] = assay: Test Example 2: weedkilling efficacy, growth period weed treatment in the submerged state; C: oval-leafed pondweed
Summary of the method: as §2

crabgrass [7] = assay: Test Example 3: weedkilling efficacy through soil treatment; D: crabgrass
Summary of the method: (§3)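 Crop and weed responses were judged three weeks after a uniform surface spray of the water-diluted emulsion at the given g/ha rate. Seeds sat beneath about 1.5 cm of sterilized diluvial soil, and boxes stood in a greenhouse at 25 to 30° C.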

green foxtail [8] = assay: Test Example 3: weedkilling efficacy through soil treatment; E: green foxtail
Summary of the method: as §3

barnyard grass [9] = assay: Test Example 3: weedkilling efficacy through soil treatment; F: barnyard grass
Summary of the method: as §3

wild oat [10] = assay: Test Example 3: weedkilling efficacy through soil treatment; G: wild oat
Summary of the method: as §3

black-grass [11] = assay: Test Example 3: weedkilling efficacy through soil treatment; H: black-grass
Summary of the method: as §3

Italian ryegrass [12] = assay: Test Example 3: weedkilling efficacy through soil treatment; I: Italian ryegrass
Summary of the method: as §3

common wind-grass [13] = assay: Test Example 3: weedkilling efficacy through soil treatment; J: common wind-grass
Summary of the method: as §3

Indian mallow [14] = assay: Test Example 3: weedkilling efficacy through soil treatment; K: Indian mallow
Summary of the method: as §3

redroot pigweed [15] = assay: Test Example 3: weedkilling efficacy through soil treatment; L: redroot pigweed
Summary of the method: as §3

fig-leafed goosefoot [16] = assay: Test Example 3: weedkilling efficacy through soil treatment; M: fig-leafed goosefoot
Summary of the method: as §3

chickweed [17] = assay: Test Example 3: weedkilling efficacy through soil treatment; N: chickweed
Summary of the method: as §3

birds-eye speedwell [18] = assay: Test Example 3: weedkilling efficacy through soil treatment; p: birds-eye speedwell
Summary of the method: as §3

directly sown rice [19] = assay: Test Example 3: soil treatment, effect on crop; b: directly sown rice
Summary of the method: as §3

corn [20] = assay: Test Example 3: soil treatment, effect on crop; c: corn
Summary of the method: as §3

soybean [21] = assay: Test Example 3: soil treatment, effect on crop; d: soybean
Summary of the method: as §3

wheat [22] = assay: Test Example 3: soil treatment, effect on crop; e: wheat
Summary of the method: as §3

beet [23] = assay: Test Example 3: soil treatment, effect on crop; f: beet
Summary of the method: as §3

rapeseed [24] = assay: Test Example 3: soil treatment, effect on crop; g: rapeseed
Summary of the method: as §3

crabgrass [25] = assay: Test Example 4: weedkilling efficacy by foliar treatment; D: crabgrass
Summary of the method: (§4)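 Seeds are spot-sown into sterilized diluvial soil and covered with about 1.5 cm of soil. After 14 days' greenhouse growth at 25 to 30° C, plants are sprayed on stems and leaves with diluted emulsion at the stated g/ha rate, then scored at 3 weeks.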

green foxtail [26] = assay: Test Example 4: weedkilling efficacy by foliar treatment; E: green foxtail
Summary of the method: as §4

barnyard grass [27] = assay: Test Example 4: weedkilling efficacy by foliar treatment; F: barnyard grass
Summary of the method: as §4

wild oat [28] = assay: Test Example 4: weedkilling efficacy by foliar treatment; G: wild oat
Summary of the method: as §4

black-grass [29] = assay: Test Example 4: weedkilling efficacy by foliar treatment; H: black-grass
Summary of the method: as §4

Italian ryegrass [30] = assay: Test Example 4: weedkilling efficacy by foliar treatment; I: Italian ryegrass
Summary of the method: as §4

common wind-grass [31] = assay: Test Example 4: weedkilling efficacy by foliar treatment; J: common wind-grass
Summary of the method: as §4

Indian mallow [32] = assay: Test Example 4: weedkilling efficacy by foliar treatment; K: Indian mallow
Summary of the method: as §4

redroot pigweed [33] = assay: Test Example 4: weedkilling efficacy by foliar treatment; L: redroot pigweed
Summary of the method: as §4

fig-leafed goosefoot [34] = assay: Test Example 4: weedkilling efficacy by foliar treatment; M: fig-leafed goosefoot
Summary of the method: as §4

chickweed [35] = assay: Test Example 4: weedkilling efficacy by foliar treatment; N: chickweed
Summary of the method: as §4

catchweed = assay: Test Example 4: weedkilling efficacy by foliar treatment; O: catchweed
Summary of the method: as §4

birds-eye speedwell [36] = assay: Test Example 4: weedkilling efficacy by foliar treatment; p: birds-eye speedwell
Summary of the method: as §4

directly sown rice [37] = assay: Test Example 4: foliar treatment, effect on crop; b: directly sown rice
Summary of the method: as §4

corn [38] = assay: Test Example 4: foliar treatment, effect on crop; c: corn
Summary of the method: as §4

soybean [39] = assay: Test Example 4: foliar treatment, effect on crop; d: soybean
Summary of the method: as §4

wheat [40] = assay: Test Example 4: foliar treatment, effect on crop; e: wheat
Summary of the method: as §4

beet [41] = assay: Test Example 4: foliar treatment, effect on crop; f: beet
Summary of the method: as §4

rapeseed [42] = assay: Test Example 4: foliar treatment, effect on crop; g: rapeseed
Summary of the method: as §4

**Q.** How did the “A (barnyard grass) weedkilling efficacy grade” value (barnyard grass [1]) turn out when `CC1=C(c2ccccc2)C(=O)N(C(C)(C)C(=O)Nc2cc(C(F)(F)F)cc(F)n2)CO1` [B-2-40] was run?
**A.** The value was 5 (weed kill ratio 90% or more, (practically complete withering)).

**Q.** And the “B (bulrush) weedkilling efficacy grade” value (bulrush [2])?
**A.** The value was 5 (weed kill ratio 90% or more, (practically complete withering)).

**Q.** What about the “C (oval-leafed pondweed) weedkilling efficacy grade” value (oval-leafed pondweed [3]) of the same compound?
**A.** The value was 5 (weed kill ratio 90% or more, (practically complete withering)).

**Q.** What about the “a (transplanted rice) effect on crop grade” value (transplanted rice) of the same compound?
**A.** Its value is 3 (weed kill ratio 40% or more, less than 70%).

**Q.** And the “A (barnyard grass) weedkilling efficacy grade” value (barnyard grass [4])?
**A.** Its value is 5 (weed kill ratio 90% or more, (practically complete withering)).

**Q.** What about the “B (bulrush) weedkilling efficacy grade” value (bulrush [5]) of the same compound?
**A.** The value was 5 (weed kill ratio 90% or more, (practically complete withering)).

**Q.** And the “C (oval-leafed pondweed) weedkilling efficacy grade” value (oval-leafed pondweed [6])?
**A.** Its value is 5 (weed kill ratio 90% or more, (practically complete withering)).

**Q.** What about the “D (crabgrass) weedkilling efficacy grade” value (crabgrass [7]) of the same compound?
**A.** Its value is 5 (weed kill ratio 90% or more, (practically complete withering)).

**Q.** What about the “E (green foxtail) weedkilling efficacy grade” value (green foxtail [8]) of the same compound?
**A.** Its value is 5 (weed kill ratio 90% or more, (practically complete withering)).

**Q.** And the “F (barnyard grass) weedkilling efficacy grade” value (barnyard grass [9])?
**A.** Its value is 5 (weed kill ratio 90% or more, (practically complete withering)).

**Q.** And the “G (wild oat) weedkilling efficacy grade” value (wild oat [10])?
**A.** The value was 5 (weed kill ratio 90% or more, (practically complete withering)).

**Q.** And the “H (black-grass) weedkilling efficacy grade” value (black-grass [11])?
**A.** The value was 5 (weed kill ratio 90% or more, (practically complete withering)).

**Q.** And the “I (Italian ryegrass) weedkilling efficacy grade” value (Italian ryegrass [12])?
**A.** The value was 5 (weed kill ratio 90% or more, (practically complete withering)).

**Q.** What about the “J (common wind-grass) weedkilling efficacy grade” value (common wind-grass [13]) of the same compound?
**A.** Its value is 5 (weed kill ratio 90% or more, (practically complete withering)).

**Q.** What about the “K (Indian mallow) weedkilling efficacy grade” value (Indian mallow [14]) of the same compound?
**A.** The value was 5 (weed kill ratio 90% or more, (practically complete withering)).

**Q.** And the “L (redroot pigweed) weedkilling efficacy grade” value (redroot pigweed [15])?
**A.** The value was 4 (weed kill ratio 70% or more, less than 90%).

**Q.** What about the “M (fig-leafed goosefoot) weedkilling efficacy grade” value (fig-leafed goosefoot [16]) of the same compound?
**A.** Its value is 5 (weed kill ratio 90% or more, (practically complete withering)).

**Q.** And the “N (chickweed) weedkilling efficacy grade” value (chickweed [17])?
**A.** The value was 4 (weed kill ratio 70% or more, less than 90%).

**Q.** What about the “P (birds-eye speedwell) weedkilling efficacy grade” value (birds-eye speedwell [18]) of the same compound?
**A.** Its value is 5 (weed kill ratio 90% or more, (practically complete withering)).

**Q.** And the “b (directly sown rice) effect on crop grade” value (directly sown rice [19])?
**A.** The value was 5 (weed kill ratio 90% or more, (practically complete withering)).

**Q.** And the “c (corn) effect on crop grade” value (corn [20])?
**A.** Its value is 0 (weed kill ratio 5% or less (practically no effect)).

**Q.** What about the “d (soybean) effect on crop grade” value (soybean [21]) of the same compound?
**A.** The value was 2 (weed kill ratio 20% or more, less than 40%).

**Q.** And the “e (wheat) effect on crop grade” value (wheat [22])?
**A.** The value was 0 (weed kill ratio 5% or less (practically no effect)).

**Q.** And the “f (beet) effect on crop grade” value (beet [23])?
**A.** The value was 3 (weed kill ratio 40% or more, less than 70%).

**Q.** And the “g (rapeseed) effect on crop grade” value (rapeseed [24])?
**A.** The value was 4 (weed kill ratio 70% or more, less than 90%).

**Q.** What about the “D (crabgrass) weedkilling efficacy grade” value (crabgrass [25]) of the same compound?
**A.** The value was 5 (weed kill ratio 90% or more, (practically complete withering)).

**Q.** What about the “E (green foxtail) weedkilling efficacy grade” value (green foxtail [26]) of the same compound?
**A.** The value was 5 (weed kill ratio 90% or more, (practically complete withering)).

**Q.** And the “F (barnyard grass) weedkilling efficacy grade” value (barnyard grass [27])?
**A.** Its value is 5 (weed kill ratio 90% or more, (practically complete withering)).

**Q.** What about the “G (wild oat) weedkilling efficacy grade” value (wild oat [28]) of the same compound?
**A.** Its value is 5 (weed kill ratio 90% or more, (practically complete withering)).

**Q.** What about the “H (black-grass) weedkilling efficacy grade” value (black-grass [29]) of the same compound?
**A.** The value was 5 (weed kill ratio 90% or more, (practically complete withering)).

**Q.** And the “I (Italian ryegrass) weedkilling efficacy grade” value (Italian ryegrass [30])?
**A.** The value was 5 (weed kill ratio 90% or more, (practically complete withering)).

**Q.** And the “J (common wind-grass) weedkilling efficacy grade” value (common wind-grass [31])?
**A.** Its value is 5 (weed kill ratio 90% or more, (practically complete withering)).

**Q.** And the “K (Indian mallow) weedkilling efficacy grade” value (Indian mallow [32])?
**A.** The value was 5 (weed kill ratio 90% or more, (practically complete withering)).

**Q.** What about the “L (redroot pigweed) weedkilling efficacy grade” value (redroot pigweed [33]) of the same compound?
**A.** Its value is 5 (weed kill ratio 90% or more, (practically complete withering)).

**Q.** And the “M (fig-leafed goosefoot) weedkilling efficacy grade” value (fig-leafed goosefoot [34])?
**A.** Its value is 5 (weed kill ratio 90% or more, (practically complete withering)).

**Q.** And the “N (chickweed) weedkilling efficacy grade” value (chickweed [35])?
**A.** Its value is 4 (weed kill ratio 70% or more, less than 90%).

**Q.** What about the “O (catchweed) weedkilling efficacy grade” value (catchweed) of the same compound?
**A.** The value was 5 (weed kill ratio 90% or more, (practically complete withering)).

**Q.** And the “P (birds-eye speedwell) weedkilling efficacy grade” value (birds-eye speedwell [36])?
**A.** The value was 4 (weed kill ratio 70% or more, less than 90%).

**Q.** What about the “b (directly sown rice) effect on crop grade” value (directly sown rice [37]) of the same compound?
**A.** Its value is 5 (weed kill ratio 90% or more, (practically complete withering)).

**Q.** And the “c (corn) effect on crop grade” value (corn [38])?
**A.** Its value is 5 (weed kill ratio 90% or more, (practically complete withering)).

**Q.** And the “d (soybean) effect on crop grade” value (soybean [39])?
**A.** The value was 5 (weed kill ratio 90% or more, (practically complete withering)).

**Q.** And the “e (wheat) effect on crop grade” value (wheat [40])?
**A.** Its value is 1 (weed kill ratio 5% or more, less than 20%).

**Q.** What about the “f (beet) effect on crop grade” value (beet [41]) of the same compound?
**A.** The value was 4 (weed kill ratio 70% or more, less than 90%).

**Q.** What about the “g (rapeseed) effect on crop grade” value (rapeseed [42]) of the same compound?
**A.** Its value is 4 (weed kill ratio 70% or more, less than 90%).
